Values quoted from earlier work as cited in patent US20160051475A1, “Sustained Release Composition Comprising an Amine as Active Agent and a Salt of a Cyclic Organic Acid” (Upsher-Smith Laboratories, Inc., priority 2010, published 2016).

For `CC(=O)Nc1ccc(O)cc1` [acetaminophen], the pKa is listed as 9.7.
